From PubChem BioAssay (NCI)
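Exposure lasted 48 hours, with cells grown in 96-well plates and compounds tested at five concentrations. GI50 is the concentration that inhibits growth by half. TGI: total growth inhibition.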

Key:
Test in all cases: NCI anticancer screen, dose series, 48 h
OVCAR-8 ovarian = system: OVCAR-8 ovarian
TK-10 renal = system: TK-10 renal
OVCAR-3 ovarian = system: OVCAR-3 ovarian
A498 renal = system: A498 renal
OVCAR-4 ovarian = system: OVCAR-4 ovarian
HL-60(TB) leukemia = system: HL-60(TB) leukemia
HCC-2998 colon = system: HCC-2998 colon
SK-OV-3 ovarian = system: SK-OV-3 ovarian
T-47D breast = system: T-47D breast
SF-295 CNS = system: SF-295 CNS
MDA-MB-231 breast = system: MDA-MB-231 breast
SW-620 colon = system: SW-620 colon
SK-MEL-2 melanoma = system: SK-MEL-2 melanoma
CAKI-1 renal = system: CAKI-1 renal
SNB-75 CNS = system: SNB-75 CNS
HOP-62 NSCLC = system: HOP-62 NSCLC
CCRF-CEM leukemia = system: CCRF-CEM leukemia
UACC-62 melanoma = system: UACC-62 melanoma
HCT-116 colon = system: HCT-116 colon
SN12C renal = system: SN12C renal
NCI-H226 lung = system: NCI-H226 lung
K-562 leukemia = system: K-562 leukemia
PC-3 prostate = system: PC-3 prostate
SF-268 CNS = system: SF-268 CNS
MDA-MB-435 = system: MDA-MB-435
RPMI-8226 leukemia = system: RPMI-8226 leukemia
UO-31 renal = system: UO-31 renal
OVCAR-5 ovarian = system: OVCAR-5 ovarian
MOLT-4 leukemia = system: MOLT-4 leukemia
MALME-3M melanoma = system: MALME-3M melanoma
SF-539 CNS = system: SF-539 CNS
NCI-H522 lung = system: NCI-H522 lung
HOP-92 NSCLC = system: HOP-92 NSCLC
NCI/ADR-RES ovarian = system: NCI/ADR-RES ovarian
UACC-257 melanoma = system: UACC-257 melanoma
MCF7 breast = system: MCF7 breast
SK-MEL-5 melanoma = system: SK-MEL-5 melanoma
HS 578T breast = system: HS 578T breast
IGROV1 ovarian = system: IGROV1 ovarian
COLO 205 colon = system: COLO 205 colon
NCI-H23 lung = system: NCI-H23 lung
HT29 colon = system: HT29 colon
BT-549 breast = system: BT-549 breast
U251 CNS = system: U251 CNS
EKVX NSCLC = system: EKVX NSCLC
RXF 393 renal = system: RXF 393 renal
A549 NSCLC = system: A549 NSCLC
KM12 colon = system: KM12 colon
786-0 renal = system: 786-0 renal
NCI-H460 lung = system: NCI-H460 lung
DU-145 prostate = system: DU-145 prostate
M14 melanoma = system: M14 melanoma
SK-MEL-28 melanoma = system: SK-MEL-28 melanoma

`CSc1ccc2c3c(n(C[C@H](O)CO)c(=O)c2c1)-c1ccccc1C3=O` gave a GI50 (OVCAR-8 ovarian) of 2.21 µM, a TGI (OVCAR-8 ovarian) of 20.9 µM and a GI50 (TK-10 renal) of 4.76 µM. For the same compound, the TGI (TK-10 renal) was 37.5 µM, the GI50 (OVCAR-3 ovarian) was 4.33 µM and the TGI (OVCAR-3 ovarian) was 41.9 µM. The GI50 (A498 renal) was 2.57 µM, the TGI (A498 renal) was 12.6 µM and the GI50 (OVCAR-4 ovarian) was 6.38 µM. It also gave a TGI (OVCAR-4 ovarian) greater than 100 µM, a GI50 (HL-60(TB) leukemia) of 1.81 µM and a TGI (HL-60(TB) leukemia) of 11.7 µM. It also gave a GI50 (HCC-2998 colon) of 3.32 µM, a TGI (HCC-2998 colon) of 18 µM and a GI50 (SK-OV-3 ovarian) of 6.06 µM. The TGI (SK-OV-3 ovarian) was 34.2 µM, the GI50 (T-47D breast) was 2.85 µM and the TGI (T-47D breast) was 45.8 µM. It also gave a GI50 (SF-295 CNS) of 2.82 µM, a TGI (SF-295 CNS) of 12 µM and a GI50 (MDA-MB-231 breast) of 3.13 µM. It also gave a TGI (MDA-MB-231 breast) of 15.1 µM, a GI50 (SW-620 colon) of 0.978 µM and a TGI (SW-620 colon) of 43.6 µM. The GI50 (SK-MEL-2 melanoma) was 16.6 µM, the TGI (SK-MEL-2 melanoma) was 60.8 µM and the GI50 (CAKI-1 renal) was 1.11 µM. It also gave a TGI (CAKI-1 renal) of 5.74 µM, a GI50 (SNB-75 CNS) of 12.5 µM and a TGI (SNB-75 CNS) greater than 100 µM. The GI50 (HOP-62 NSCLC) was 1.83 µM, the TGI (HOP-62 NSCLC) was 7.27 µM and the GI50 (CCRF-CEM leukemia) was 1.02 µM. The TGI (CCRF-CEM leukemia) was 7.1 µM, the GI50 (UACC-62 melanoma) was 1.39 µM and the TGI (UACC-62 melanoma) was 4.64 µM. The GI50 (HCT-116 colon) was 0.742 µM, the TGI (HCT-116 colon) was 2.35 µM and the GI50 (SN12C renal) was 1.94 µM. The TGI (SN12C renal) was 13.6 µM, the GI50 (NCI-H226 lung) was 1.86 µM and the TGI (NCI-H226 lung) was 5.31 µM. The GI50 (K-562 leukemia) was 1.72 µM, the TGI (K-562 leukemia) was greater than 100 µM and the GI50 (PC-3 prostate) was 3.42 µM. For the same compound, the TGI (PC-3 prostate) was greater than 100 µM, the GI50 (SF-268 CNS) was 4.64 µM and the TGI (SF-268 CNS) was greater than 100 µM. It also gave a GI50 (MDA-MB-435) of 9.95 µM, a TGI (MDA-MB-435) greater than 100 µM and a GI50 (RPMI-8226 leukemia) of 1.62 µM. For the same compound, the TGI (RPMI-8226 leukemia) was 4.86 µM, the GI50 (UO-31 renal) was 1.53 µM and the TGI (UO-31 renal) was 8.94 µM. It also gave a GI50 (OVCAR-5 ovarian) of 3.1 µM, a TGI (OVCAR-5 ovarian) of 10.6 µM and a GI50 (MOLT-4 leukemia) of 0.368 µM. It also gave a TGI (MOLT-4 leukemia) of 2.33 µM, a GI50 (MALME-3M melanoma) of 4.3 µM and a TGI (MALME-3M melanoma) of 22 µM. It also gave a GI50 (SF-539 CNS) of 2.36 µM, a TGI (SF-539 CNS) of 7.37 µM and a GI50 (NCI-H522 lung) of 2 µM. The TGI (NCI-H522 lung) was 25.5 µM, the GI50 (HOP-92 NSCLC) was 12.9 µM and the TGI (HOP-92 NSCLC) was 93.9 µM. For the same compound, the GI50 (NCI/ADR-RES ovarian) was 4.44 µM, the TGI (NCI/ADR-RES ovarian) was 49.9 µM and the GI50 (UACC-257 melanoma) was 13.2 µM. It also gave a TGI (UACC-257 melanoma) of 42.6 µM, a GI50 (MCF7 breast) of 0.423 µM and a TGI (MCF7 breast) of 11 µM. The GI50 (SK-MEL-5 melanoma) was 1.75 µM, the TGI (SK-MEL-5 melanoma) was 3.76 µM and the GI50 (HS 578T breast) was 15.8 µM. It also gave a TGI (HS 578T breast) of 78.8 µM, a GI50 (IGROV1 ovarian) of 3.77 µM and a TGI (IGROV1 ovarian) of 85.3 µM. The GI50 (COLO 205 colon) was 2.94 µM, the TGI (COLO 205 colon) was 21.1 µM and the GI50 (NCI-H23 lung) was 2.95 µM. The TGI (NCI-H23 lung) was 12.7 µM, the GI50 (HT29 colon) was 1.33 µM and the TGI (HT29 colon) was 6.38 µM. The GI50 (BT-549 breast) was 2.77 µM, the TGI (BT-549 breast) was 22.8 µM and the GI50 (U251 CNS) was 1.19 µM. It also gave a TGI (U251 CNS) of 7.49 µM, a GI50 (EKVX NSCLC) of 3.89 µM and a TGI (EKVX NSCLC) of 88 µM. For the same compound, the GI50 (RXF 393 renal) was 3.5 µM, the TGI (RXF 393 renal) was 23.3 µM and the GI50 (A549 NSCLC) was 1.04 µM. The TGI (A549 NSCLC) was 3.47 µM, the GI50 (KM12 colon) was 2.26 µM and the TGI (KM12 colon) was 10.3 µM. It also gave a GI50 (786-0 renal) of 2.52 µM, a TGI (786-0 renal) of 9.22 µM and a GI50 (NCI-H460 lung) of 0.476 µM. For the same compound, the TGI (NCI-H460 lung) was 2.33 µM, the GI50 (DU-145 prostate) was 2.5 µM and the TGI (DU-145 prostate) was greater than 100 µM. For the same compound, the GI50 (M14 melanoma) was 4.09 µM, the TGI (M14 melanoma) was 58.3 µM and the GI50 (SK-MEL-28 melanoma) was 4.46 µM. The TGI (SK-MEL-28 melanoma) was 48.8 µM.
